Measured values reported in patent publication US20060135587A1, “Method and compounds for promoting healing and reducing inflammation” (priority 2002, published 2006).
Like-named read-outs stand apart in the source and are kept apart here.

Columns and labels:
myocardial infarction = experiment: Clinical study in subacute phase of myocardial infarction (Example 24); type: in vivo, human
Experimental: The effect of Compound 2 therapy in patients suffering from the subacute phase of myocardial infarction (MI) was assessed. The patients were divided into two groups. There were no substantial differences between the groups in terms of age and basic features of necrotic foci. Each patient continued to receive the treatment which s/he had been given prior to commencement of the trial. Compound 2 was administered in addition to the previous treatment. The first group included 63 patients who received conventional therapy, i.e. nitrates, anticoagulants and/or hypotensive agents as appropriate, and the second group comprised 44 patients who were treated with Compound 2 at a dose of 600 mg per day from the 7th to the 28th day after diagnosis of myocardial infarction, in addition to receiving conventional treatment. The control group included 14 healthy men aged from 26 to 42. The average age of patients in the first group was 50.3 years, and in the second group, 49.5 years.
Clinical evidence from daily examinations of both groups and the results of electrocardiagraphic examination in 12 abductions were assessed over the entire observation period. A number of analyses were made on the 7th and 28th day of progress of MI, including clinical blood count, plasma bilirubin, sugar, creatinine, cholesterol, β3-lipoproteins, potassium and sodium, and urine analysis; the activity of the prothrombin complex and the time of re-calcification were also determined. Central haemodynamics were examined using the method of body integral rheography, whereby the stroke volume and cardiac indices were calculated. Indices of left ventricular contractility—terminal diastolic volume, ejection fraction, and the extent of systolic contraction of anteroposterior cavity dimensions (% ΔS)— were examined using the echography method using an Aloka SSD-119 apparatus (Japan). Central and intracardiac haemodynamics was investigated on the 1st, 7th; 14th, 21st and 28th days of the disease.

[1] = tested on: full-thickness skin wounds; experiment: Morphological assessment of the wound healing stages; type: in vivo, rats; settings: Day 15
Text: An important indicator of wound healing is the morphology and epithelialization of the wound surface (Sarkisov et al, 1981). Samples were taken from experimental animals on the fifth, tenth and fifteenth days of the study described in Example 13, which roughly correspond to the three wound healing stages: the first traumatic inflammation stage is complete by the fifth day, the granulation tissue development stage is complete by the tenth day, and cicatrisation and epithelialization take place from the fifteenth to twentieth days. The results are illustrated in FIG. 1.
A comparative assessment of the healing of a full-thickness wound was performed on the basis of a set of morphological indicators characterising the regeneration process: […]

wounds = experiment: Treatment of wounds in human patients; type: in vivo
Experimental: The effect of Compound 2 on the healing of different types of wounds was tested in human patients. A powder, solution or ointment of the substance containing the active agent in a proportion of 5% to 95% was applied to the wound. In all cases the wounds healed rapidly without infection or scarring.

[2] = tested on: neurogenic dystrophy of the myocardium; experiment: Myocardial infarction model (electrostimulation), enzymes in rabbit myocardium; type: in vivo, rabbits; settings: 10 mg/kg; 48 hours after electrostimulation
Text: The effect of Compound 2 on myocardial tissue in an experimental model of myocardial infarction was examined. In this model system neurogenic dystrophy of the myocardium was induced in rats or rabbits by electrical stimulation of the reflexogenic zone of the aortic arch by implanted electrodes for a period of three hours. […] These changes are accompanied by changes in biochemical indicators such as creatine phosphate, cAMP, and calcium ion concentrations, and changes in the activity of redox enzymes such as succinate dehydrogenase, lactate dehydrogenase, and glucose-6-phosphate dehydrogenase. At a later stage organic lesions of the myocardium such as necrotic and fibrosclerotic foci can be observed.
The effect of Compound 2 given intraperitoneally or orally on these indicators was examined in rats and rabbits following electrostimulation as described above. The effects on levels of creatine phosphate in rat myocardial are shown in Table 19, and the effects on adenosine triphosphatase (ATPase), succinate dehydrogenase and glucose-6-phosphate dehydrogenase rabbit myocardium are shown in Table 20. The effects on cAMP and Ca^++ levels in rabbit myocardial tissue are shown in FIG. 5, and effects on creatine kinase in rabbit myocardium and blood and the levels of creatine phosphate in myocardium are shown in FIG. 6.

[3] = Rat peripheral blood indicators during full-thickness skin wound treatment; type: in vivo, rats
Experimental: Peripheral blood indicators (leucocytes, leucocyte formula, erythrocyte sedimentation rate) of the rats from the test and control groups were measured before the animals were wounded, and then checked on the fifth, tenth and fifteenth days of the experiment. No reproducible changes compared to the blood characteristics of the intact animals prior to wounding were identified from the haematological indicators of rats treated with Compound 2.

Experimental for white male mice: The acute toxicity of 1,3-dialkyl-4,5-bis (N-methylcarbamoyl)imidazolium salts was assessed following intraperitoneal injection into 200 white male mice weighing 18 to 20 g. Dead animals were counted daily after the administration of the test substance.

CC[n+]1cn(C)c(C(=O)NC)c1C(=O)NC.O=S(=O)([O-])c1ccccc1 [Compound 2, 1-methyl-3-ethyl-4,5-bis(N-methylcarbamoyl)-imidazolium benzenesulfonate]
left ventricular myocardial contractility (myocardial infarction; 600 mg per day combined with conventional therapy): increased the rate and extent of regeneration of left ventricular myocardial contractility
clinical side effects (myocardial infarction; 600 mg per day, 7th to 28th day of the disease): did not produce any clinical side effects
serum bilirubin (myocardial infarction; 600 mg per day, does not exceed the upper limit of standard values): increase in unconjugated and hence total bilirubin in serum
animals showing complete epithelialization of the wound [1]: 60%
animals showing incomplete epithelialization [1]: 40%
wound outcome (wounds; Patient A, incisional wound 5 cm, 10% ointment in lanolin daily for 5 days, at 17 days): there was no scar, and the skin had fully recovered
wound outcome (wounds; Patient B, bed sores on the thigh, 0.5 g finely dispersed powder daily for 5 days, at 16 days): there was no scar, and the skin had fully recovered
wound outcome (wounds; Patient C, second degree thermal burn, 10% sterile aqueous solution, at 16 days): complete recovery of the skin, without scars
wound outcome (wounds; Patient D, abrasion of the left leg, 0.5 g powder mixed with equal amount of talc, at 12 days): the skin had healed completely
wound outcome (wounds; Patient E, erosion of the uterine cervix, 10% ointment on a tampon daily for two weeks, colposcopy at 18 days): the epithelium of the mucous membrane of the uterine cervix had fully recovered
LD50 (white male mice; intraperitoneal injection, white male mice, 14 days observation): 764 mg/kg
LD50 (white male mice; mice, given intraperitoneally, text b404): 1920 mg/kg
ATPase [2]: 0.47 ± 0.13 µM/mg/min
Glucose-6-phosphate dehydrogenase (optical density units) [2]: 6.2 ± 0.7 optical density units
Succinate dehydrogenase (optical density units) [2]: 44.2 ± 6.7 optical density units
ESR mm/h ([3]; day 5): 2.2 ± 0.6 mm/h
Leucocyte count (%) Band neutrophils ([3]; day 5): 1.4 ± 0.4%
Leucocyte count (%) Segmented neutrophils ([3]; day 5): 35.2 ± 4.4%
Leucocyte count (%) basophils ([3]; day 5): 0%
Leucocyte count (%) eosinophils ([3]; day 5): 2.6 ± 0.6%
Leucocyte count (%) lymphocytes ([3]; day 5): 52.6 ± 4.5%
Leucocyte count (%) monocytes ([3]; day 5): 8.2 ± 0.8%
Leucocytes 10^9/l ([3]; day 5): 6.6 ± 0.9 10^9/l
ESR mm/h ([3]; day 10): 1.0 ± 0 mm/h
Leucocyte count (%) Band neutrophils ([3]; day 10): 1.2 ± 0.2%
Leucocyte count (%) Segmented neutrophils ([3]; day 10): 29.6 ± 2.2%
Leucocyte count (%) basophils ([3]; day 10): 0.6 ± 0.2%
Leucocyte count (%) eosinophils ([3]; day 10): 2.4 ± 0.5%
Leucocyte count (%) lymphocytes ([3]; day 10): 63.8 ± 1.9%
Leucocyte count (%) monocytes ([3]; day 10): 2.4 ± 0.5%
Leucocytes 10^9/l ([3]; day 10): 7.9 ± 0.6 10^9/l
European Search Report mm/h ([3]; day 15): 1.4 ± 0.2 mm/h
Leucocyte count (%) Band neutrophils ([3]; day 15): 1.2 ± 0.2%
Leucocyte count (%) Segmented neutrophils ([3]; day 15): 21.0 ± 3.1%
Leucocyte count (%) basophils ([3]; day 15): 0.4 ± 0.2%
Leucocyte count (%) eosinophils ([3]; day 15): 2.8 ± 0.2%
Leucocyte count (%) lymphocytes ([3]; day 15): 70.6 ± 3.4%
Leucocyte count (%) monocytes ([3]; day 15): 4.0 ± 0.7%
Leucocytes 10^9/1 ([3]; day 15): 11.1 ± 1.6 10^9/1
